Reference: patent publication US20070128217A1 (priority 2003, published 2007)

Key:
[1] = system: antibodies in sera from SARS patients (sera 1a, 1b, 2, 6, 37, 62, London, SARS-yellow, SARS-green); type: binding, human; parameters: Binding of serum 6 to linear peptides of protein X1 of SARS-CoV Urbani / Binding of serum 37 to linear peptides of protein X1 of SARS-CoV Urbani / Binding of serum 6 to looped/cyclic peptide (PEPSCAN-ELISA) / Binding of serum 37 to looped/cyclic peptide (PEPSCAN-ELISA) / Binding of serum 37 to looped/cyclic peptides of protein X1 of SARS-CoV Urbani / Binding of serum 6 to linear peptides of protein X2 / Binding of serum 37 to linear peptides of protein X2 / Binding of serum 37 to looped/cyclic peptides of protein X2 of SARS-CoV Urbani / Binding of serum 6 to linear peptides of protein M of SARS-CoV Urbani / Binding of serum 37 to linear peptides of protein M of SARS-CoV Urbani / Binding of serum 6 to looped/cyclic peptides of protein M of SARS-CoV Urbani / Binding of serum 37 to looped/cyclic peptides of protein M of SARS-CoV Urbani / Binding of serum 6 to linear peptides of protein X3 of SARS-CoV Urbani / Binding of serum 37 to linear peptides of protein X3 of SARS-CoV Urbani / Binding of serum 37 to looped/cyclic peptides of protein X3 of SARS-CoV Urbani / Binding of serum 6 to linear peptides of protein X4 of SARS-CoV Urbani / Binding of serum 37 to linear peptides of protein X4 of SARS-CoV Urbani / Binding of serum 37 to looped/cyclic peptides of protein X4 of SARS-CoV Urbani / Binding of serum 6 to linear peptides of protein X5 of SARS-CoV Urbani / Binding of serum 37 to linear peptides of protein X5 of SARS-CoV Urbani / Binding of serum 37 to looped/cyclic peptides of protein X5 of SARS-CoV Urbani / Binding of serum 6 to linear peptides of protein N of SARS-CoV Urbani / Binding of serum 37 to linear peptides of protein N of SARS-CoV Urbani / Binding of serum 6 to linear peptide (PEPSCAN-ELISA) / Binding of serum 1a to looped/cyclic peptides of protein N of SARS-CoV Urbani / Binding of serum 1b to looped/cyclic peptides of protein N of SARS-CoV Urbani / Binding of serum 2 to looped/cyclic peptides of protein N of SARS-CoV Urbani / Binding of serum 6 to looped/cyclic peptides of protein N of SARS-CoV Urbani / Binding of serum 37 to looped/cyclic peptides of protein N of SARS-CoV Urbani / Binding of serum 62 to looped/cyclic peptides of protein N of SARS-CoV Urbani / Binding of serum London to looped/cyclic peptides of protein N of SARS-CoV Urbani / Binding of serum SARS-green to looped/cyclic peptides of protein N of SARS-CoV Urbani: unit not given here
[2] = system: control sera (pooled serum of ten healthy LUMC hospital workers; commercial negative donor pooled serum from the Dutch bloodbank); type: binding, human; parameters: Binding of Control serum LUMC to linear peptides / Binding of Control serum Blood-bank to linear peptides / Binding of Control serum LUMC to looped peptides / Binding of Control Serum Blood-Bank to Looped peptides / Binding of Control serum LUMC to linear peptides of the protein M of SARS-CoV Urbani / Binding of Control serum Blood-bank to linear peptides of the protein M of SARS-CoV Urbani / Binding of Control serum LUMC to looped peptides of the protein M of SARS-CoV Urbani / Binding of Control Serum Blood-Bank to Looped peptides of the protein M of SARS-CoV Urbani: unit not given here
[3] = system: rabbit serum obtained by immunizing a rabbit with the SARS-CoV strain Frankfurt 1; type: binding; parameters: Binding of a rabbit serum to linear peptides / Binding of a rabbit serum to looped peptides / Rabbit serum linear peptides / Rabbit serum looped peptides / Binding of a rabbit serum to linear peptides of protein N of SARS-CoV Urbani (Rabbit serum linear peptides) / Binding of a rabbit serum to looped/cyclic peptides of protein N of SARS-CoV Urbani (Rabbit serum looped peptides): unit not given here
[4] = system: recombinant human anti-SARS-CoV antibody 03-018; type: binding; parameters: Binding of antibody 03-018 to linear peptides of the N protein of SARS-CoV Urbani / Binding of antibody 03-018 to looped/cyclic peptides of the N protein of SARS-CoV Urbani: unit not given here

Sequence	Binding of serum 1a to linear peptides of protein N of SARS-CoV Urbani [1]	Binding of serum 1a to looped/cyclic peptides of protein N of SARS-CoV Urbani [1]	Binding of serum 1b to linear peptides of protein N of SARS-CoV Urbani [1]	Binding of serum 1b to looped/cyclic peptides of protein N of SARS-CoV Urbani [1]	Binding of serum 2 to linear peptides of protein N of SARS-CoV Urbani [1]	Binding of serum 2 to looped/cyclic peptides of protein N of SARS-CoV Urbani [1]	Binding of serum 6 to linear peptides of protein N of SARS-CoV Urbani [1]	Binding of serum 6 to looped/cyclic peptides of protein N of SARS-CoV Urbani [1]	Binding of serum 37 to linear peptides of protein N of SARS-CoV Urbani [1]	Binding of serum 37 to looped/cyclic peptides of protein N of SARS-CoV Urbani [1]	Binding of serum 62 to linear peptides of protein N of SARS-CoV Urbani [1]	Binding of serum 62 to looped/cyclic peptides of protein N of SARS-CoV Urbani [1]	Binding of serum London to linear peptides of protein N of SARS-CoV Urbani [1]	Binding of serum London to looped/cyclic peptides of protein N of SARS-CoV Urbani [1]	Binding of serum SARS-green to looped/cyclic peptides of protein N of SARS-CoV Urbani [1]	Binding of serum SARS-yellow to looped/cyclic peptides of protein N of SARS-CoV Urbani [1]	Binding of a rabbit serum to linear peptides of protein N of SARS-CoV Urbani (Rabbit serum linear peptides) [3]	Binding of a rabbit serum to looped/cyclic peptides of protein N of SARS-CoV Urbani (Rabbit serum looped peptides) [3]	Binding of antibody 03-018 to linear peptides of the N protein of SARS-CoV Urbani [4]	Binding of antibody 03-018 to looped/cyclic peptides of the N protein of SARS-CoV Urbani [4]	further results
TWLTYHGAIKLDDKD	0.2	0.2	0.1	0.2	0.1	0.2	0.2	0.1	0.6	0.4	0.6	0.3	0.5	0.2	0.3	0.3	0.1	0.3	0.1	0.2	Binding of serum SARS-green to linear peptides of protein N of SARS-CoV Urbani [1]: 0.3; Binding of serum SARS-yellow to linear peptides of protein N of SARS-CoV Urbani [1]: 0.6; Control Serum Blood-Bank Looped peptides [2]: 0.4; Control serum Blood-bank linear peptides [2]: 0.6; Control serum LUMC linear peptides [2]: 0.6; Control serum LUMC looped peptides [2]: 0.4
TALTQHGKEELRFPR	0.2	0.4	0.1	0.3	0.2	0.6	0.1	0.5	0.7	0.8	0.6	0.6	0.5	0.6	0.7	0.7	0.1	0.4	0.1	0.3	Binding of serum SARS-green to linear peptides of protein N of SARS-CoV Urbani [1]: 0.4; Binding of serum SARS-yellow to linear peptides of protein N of SARS-CoV Urbani [1]: 0.5; Binding of Control Serum Blood-Bank to Looped peptides [2]: 0.8; Binding of Control serum Blood-bank to linear peptides [2]: 0.8; Binding of Control serum LUMC to linear peptides [2]: 0.6; Binding of Control serum LUMC to looped peptides [2]: 0.8
TQGNFGDQDLIRQGT	–	0.4	–	0.3	–	0.4	–	0.2	–	0.7	–	0.7	–	0.5	0.5	0.6	0.2	0.6	0.1	0.2	Binding of serum 1a to linear peptide (PEPSCAN-ELISA) [1]: 0.3; Binding of serum 1b to linear peptide (PEPSCAN-ELISA) [1]: 0.2; Binding of serum 2 to linear peptide (PEPSCAN-ELISA) [1]: 0.2; Binding of serum 6 to linear peptide (PEPSCAN-ELISA) [1]: 0.2; Binding of serum 37 to linear peptide (PEPSCAN-ELISA) [1]: 0.9; Binding of serum 62 to linear peptide (PEPSCAN-ELISA) [1]: 0.8; Binding of serum London to linear peptide (PEPSCAN-ELISA) [1]: 0.6; Binding of serum SARS-green to linear peptide (PEPSCAN-ELISA) [1]: 0.6; Binding of serum SARS-yellow to linear peptide (PEPSCAN-ELISA) [1]: 0.6; Binding of Control Serum Blood-Bank to Looped peptides [2]: 0.8; Binding of Control serum Blood-bank to linear peptides [2]: 0.8; Binding of Control serum LUMC to linear peptides [2]: 0.9; Binding of Control serum LUMC to looped peptides [2]: 0.8
GPTDSTDNNQNGGRN	0.3	0.4	0.2	0.4	0.4	0.6	0.2	0.3	0.8	0.9	0.6	0.6	0.6	0.5	1.4	0.4	0.1	0.4	0.2	0.2	Binding of serum SARS-green to linear peptides of protein N of SARS-CoV Urbani [1]: 0.6; Binding of serum SARS-yellow to linear peptides of protein N of SARS-CoV Urbani [1]: 0.6; Binding of Control Serum Blood-Bank to Looped peptides [2]: 0.6; Binding of Control serum Blood-bank to linear peptides [2]: 0.8; Binding of Control serum LUMC to linear peptides [2]: 0.7; Binding of Control serum LUMC to looped peptides [2]: 0.5
